Measured values as given in US20230340011A1 (Asteroid Therapeutics, priority 2022, published 2023).
Like-named read-outs stand apart in the source and are kept apart here.

Tests used:
[1] = molecular target: T1, SREBP-2 (Homo sapiens (Human), UniProt Q12772); experiment: SREBP-2 IC50 (category A-D, Tables 1 and 3); type: cell-based; details: Table 3, trans-AB examples
[2] = molecular target: T1, SREBP-2; experiment: In vitro assay SREBP-2: PathHunter U2OS SREBP-2 Nuclear Translocation Cell Line, U18666A-stimulated; type: cell-based; details: PathHunter U2OS SREBP-2 nuclear translocation cells, U18666A 10 μM, overnight (16 hours)
[3] = molecular target: T2, LXRβ (Homo sapiens (Human), UniProt P55055); experiment: LXRβ PPI (category A-D, Tables 1 and 3); type: biochemical; details: Table 3, trans-AB examples
[4] = molecular target: T2, LXRβ; experiment: In vitro assay LXRβ: PathHunter NHR CHO cells, LXRβ / Steroid Receptor Co-activator Peptide enzyme fragment complementation; type: cell-based
Method in brief: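 Enzyme fragment complementation read-out: CHO cells stably expressing ProLink-tagged full-length human LXRβ plus nuclear enzyme acceptor–SRCP fusion, seeded and held overnight at 37° C. Medium with charcoal-dextran filtered serum; final vehicle 1%. Chemiluminescence measured after signal generation.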

[5] = PathHunter NHR CHO cells, full-length human LXRβ and SRCP, chemiluminescent signal, read-out: LXRβ PPI

T2 sequence (P55055 whole entry, the tested form may be a part): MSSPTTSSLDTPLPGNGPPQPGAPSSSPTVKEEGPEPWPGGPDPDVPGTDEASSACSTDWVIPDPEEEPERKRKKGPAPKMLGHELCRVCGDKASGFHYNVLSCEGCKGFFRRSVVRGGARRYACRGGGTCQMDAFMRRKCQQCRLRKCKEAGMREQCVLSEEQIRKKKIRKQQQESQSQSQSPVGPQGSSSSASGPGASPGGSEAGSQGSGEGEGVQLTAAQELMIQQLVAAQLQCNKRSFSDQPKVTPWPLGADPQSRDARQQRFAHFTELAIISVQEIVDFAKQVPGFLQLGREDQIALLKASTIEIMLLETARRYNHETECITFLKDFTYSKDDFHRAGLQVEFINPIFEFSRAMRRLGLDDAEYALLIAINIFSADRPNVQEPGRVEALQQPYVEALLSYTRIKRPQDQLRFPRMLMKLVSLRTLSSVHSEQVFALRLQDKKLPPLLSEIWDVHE

Question: For `C[C@H](CC[C@@](O)(C1CC1)C(F)(F)F)[C@H]1CC[C@H]2[C@@H]3CC=C4C[C@@H](O)CC[C@]4(C)[C@H]3CC[C@]12C` [Example 24, (3S,8S,9S,10R,13R,14S,17R)-17-((2R,5R)-5-cyclopropyl-6,6,6-trifluoro-5-hydroxyhexan-2-yl)-10,13-dimethyl-2,3,4,7,8,9,10,11,12,13,14,15,16,17-tetradecahydro-1H-cyclopenta(a)phenanthren-3-ol], which IC50 [1] is on record?
Answer: 250 to 1000 nM

Question: What about the IC50 [2] of the same molecule?
Answer: 250 to 1000 nM

Question: `C[C@H](CC[C@](O)(C1CC1)C(F)(F)F)[C@H]1CC[C@H]2[C@@H]3CC=C4C[C@@H](O)CC[C@]4(C)[C@H]3CC[C@]12C` [Example 23, (3S,8S,9S,10R,13R,14S,17R)-17-((2R,5s)-5-cyclopropyl-6,6,6-trifluoro-5-hydroxyhexan-2-yl)-10,13-dimethyl-2,3,4,7,8,9,10,11,12,13,14,15,16,17-tetradecahydro-1H-cyclopenta(a)phenanthren-3-ol] was tested. Which IC50 [1] did it give?
Answer: < 250 nM

Question: What about the “LXRβ PPI” value [3] of the same molecule?
Answer: A (<1 nM to 250 nM)

Question: What about the IC50 [2] of the same molecule?
Answer: < 250 nM

Question: `CC[C@](O)(CC[C@@H](C)[C@H]1CC[C@H]2[C@@H]3CC=C4C[C@@H](O)CC[C@]4(C)[C@H]3CC[C@]12C)C(F)(F)F` [Example 22, (3S,8S,9S,10R,13R,14S,17R)-17-((2R,5S)-5-hydroxy-5-(trifluoromethyl)heptan-2-yl)-10,13-dimethyl-2,3,4,7,8,9,10,11,12,13,14,15,16,17-tetradecahydro-1H-cyclopenta(a)phenanthren-3-ol] was tested. Which IC50 [1] did it give?
Answer: < 250 nM

Question: What about the “LXRβ PPI” value [3] of the same molecule?
Answer: B (250 nM-1000 nM)

Question: And the IC50 [2]?
Answer: 250 to 1000 nM

Question: What does the source list for `CC[C@@](O)(CC[C@@H](C)[C@H]1CC[C@H]2[C@@H]3CC=C4C[C@@H](O)CC[C@]4(C)[C@H]3CC[C@]12C)C(F)(F)F` [Example 21, (3S,8S,9S,10R,13R,14S,17R)-17-((2R,5R)-5-hydroxy-5-(trifluoromethyl)heptan-2-yl)-10,13-dimethyl-2,3,4,7,8,9,10,11,12,13,14,15,16,17-tetradecahydro-1H-cyclopenta(a)phenanthren-3-ol]?
Answer: IC50 [1]: < 250 nM; LXRβ PPI [3]: C (1000-10000 nM); IC50 [2]: < 250 nM

Question: Which IC50 [1] does the source give for “(R)-4-((3S,8S,9S,10R,13R,14S,17R)-3-hydroxy-10,13-dimethyl-2,3,4,7,8,9,10,11,12,13,14,15,16,17-tetradecahydro-1H-cyclopenta[a]phenanthren-17-yl)-N-methyl-N-propoxypentanamide [Example 12]” here?
Answer: < 250 nM

Question: What about the “LXRβ PPI” value [3] of the same molecule?
Answer: D (>10000 nM)

Question: `C[C@H](CCC(=O)N1CC[C@@H](CO)O1)[C@H]1CC[C@H]2[C@@H]3CC=C4C[C@@H](O)CC[C@]4(C)[C@H]3CC[C@]12C` [Example 42, (R)-4-((3S,8S,9S,10R,13R,14S,17R)-3-hydroxy-10,13-dimethyl-2,3,4,7,8,9,10,11,12,13,14,15,16,17-tetradecahydro-1H-cyclopenta[a]-phenanthren-17-yl)-1-((S)-5-(hydroxymethyl)isoxazolidin-2-yl) pentan-1-one] was tested. Which IC50 [1] did it give?
Answer: < 250 nM

Question: What about the “LXRβ PPI” value [3] of the same molecule?
Answer: D (>10000 nM)

Question: And the IC50 [2]?
Answer: 250 to 1000 nM

Question: Which IC50 [1] does the source give for `CCC1(O)CCN(C(=O)CC[C@@H](C)[C@H]2CC[C@H]3[C@@H]4CC[C@H]5C[C@@H](O)CC[C@]5(C)[C@H]4[C@@H](O)C[C@]23C)CC1` [Example T7, (R)-4-((3S,5S,8S,9S,10S,11S,13R,14S,17R)-3,11-dihydroxy-10,13-dimethylhexadecahydro-1H-cyclopenta[a]phenanthren-17-yl)-1-(4-ethyl-4-hydroxypiperidin-1-yl)pentan-1-one] here?
Answer: 250 to 1000 nM

Question: Which IC50 [1] does the source give for `CCON(C)C(=O)CC[C@@H](C)[C@H]1CC[C@H]2[C@@H]3CC=C4C[C@@H](O)CC[C@]4(C)[C@H]3CC[C@]12C` [Example 10, (R)—N-ethoxy-4-((3S,8S,9S,10R,13R,14S,17R)-3-hydroxy-10,13-dimethyl-2,3,4,7,8,9,10,11,12,13,14,15,16,17-tetradecahydro-1H-cyclopenta[a]phenanthren-17-yl)-N-methylpentanamide] here?
Answer: < 250 nM

Question: And the “LXRβ PPI” value [3]?
Answer: B (250 nM-1000 nM)

Question: And the IC50 [2]?
Answer: < 250 nM

Question: `C[C@H](CCC(=O)N(C)C)[C@H]1CC[C@H]2[C@@H]3CC[C@H]4C[C@@H](O)CC[C@]4(C)[C@H]3[C@@H](O)C[C@]12C` [Example T5, (R)-4-((3S,5S,8S,9S,10S,11S,13R,14S,17R)-3,11-dihydroxy-10,13-dimethylhexadecahydro-1H-cyclopenta[a]phenanthren-17-yl)-N, N-dimethylpentanamide] was tested. Which IC50 [1] did it give?
Answer: 250 to 1000 nM

Question: What does the source list for `C[C@H](CC[C@@](O)(C1CCC1)C(F)(F)F)[C@H]1CC[C@H]2[C@@H]3CC=C4C[C@@H](O)CC[C@]4(C)[C@H]3CC[C@]12C` [Example 26, (3S,8S,9S,10R,13R,14S,17R)-17-((2R,5R)-5-cyclobutyl-6,6,6-trifluoro-5-hydroxyhexan-2-yl)-10,13-dimethyl-2,3,4,7,8,9,10,11,12,13,14,15,16,17-tetradecahydro-1H-cyclopenta[a]phenanthren-3-ol]?
Answer: IC50 [1]: 250 to 1000 nM; LXRβ PPI [3]: B (250 nM-1000 nM); IC50 [2]: 250 to 1000 nM

Question: With `CC(=O)NC1CCN(C(=O)CC[C@@H](C)[C@H]2CC[C@H]3[C@@H]4CC=C5C[C@@H](O)CC[C@]5(C)[C@H]4CC[C@]23C)CC1` [Example 320, N-(1-((R)-4-((3S,8S,9S,10R,13R,14S,17R)-3-hydroxy-10,13-dimethyl-2,3,4,7,8,9,10,11,12,13,14,15,16,17-tetradecahydro-1H-cyclopenta[a]phenanthren-17-yl)pentanoyl)piperidin-4-yl)acetamide] as the molecule, how does the IC50 [2] read?
Answer: < 250 nM

Question: What about the EC50 [4, 5] of the same molecule?
Answer: > 10000 nM

Question: With `C[C@H](CCC(=O)N1CCC(OCc2ccncc2)CC1)[C@H]1CC[C@H]2[C@@H]3CC=C4C[C@@H](O)CC[C@]4(C)[C@H]3CC[C@]12C` [Example 546, (R)-4-((3S,8S,9S,10R,13R,14S,17R)-3-hydroxy-10,13-dimethyl-2,3,4,7,8,9,10,11,12,13,14,15,16,17-tetradecahydro-1H-cyclopenta[a]phenanthren-17-yl)-1-(4-(pyridin-4-ylmethoxy)piperidin-1-yl)pentan-1-one] as the molecule, how does the IC50 [2] read?
Answer: < 250 nM

Question: What about the EC50 [4, 5] of the same molecule?
Answer: > 10000 nM

Question: `C[C@H](CCc1cccc(C(F)(F)F)n1)[C@H]1CC[C@H]2[C@@H]3CC=C4C[C@@H](O)CC[C@]4(C)[C@H]3CC[C@]12C` [Example 166, (3S,8S,9S,10R,13R,14S,17R)-10,13-dimethyl-17-((R)-4-(6-(trifluoromethyl)pyridin-2-yl)butan-2-yl)-2,3,4,7,8,9,10,11,12,13,14,15,16,17-tetradecahydro-1H-cyclopenta[a]phenanthren-3-ol] was tested. Which IC50 [2] did it give?
Answer: 250 to 1000 nM

Question: What about the EC50 [4, 5] of the same molecule?
Answer: > 10000 nM

Question: What does the source list for `Cc1ccc(CC[C@@H](C)[C@H]2CC[C@H]3[C@@H]4CC=C5C[C@@H](O)CC[C@]5(C)[C@H]4CC[C@]23C)nc1` [Example 131, (3S,8S,9S,10R,13R,14S,17R)-10,13-dimethyl-17-((R)-4-(5-methylpyridin-2-yl)butan-2-yl)-2,3,4,7,8,9,10,11,12,13,14,15,16,17-tetradecahydro-1H-cyclopenta[a]phenanthren-3-ol]?
Answer: IC50 [2]: 250 to 1000 nM; EC50 [4, 5]: > 10000 nM

Question: What does the source list for `C[C@H](CCc1ncccc1C(C)(C)O)[C@H]1CC[C@H]2[C@@H]3CC=C4C[C@@H](O)CC[C@]4(C)[C@H]3CC[C@]12C` [Example 248, (3S,8S,9S,10R,13R,14S,17R)-17-((R)-4-(3-(2-hydroxypropan-2-yl)pyridin-2-yl)butan-2-yl)-10,13-dimethyl-2,3,4,7,8,9,10,11,12,13,14,15,16,17-tetradecahydro-1H-cyclopenta[a]phenanthren-3-ol]?
Answer: IC50 [2]: < 250 nM; EC50 [4]: < 250 nM

Question: What does the source list for `C[C@H](CCC(=O)N1CCS(=O)(=O)C1)[C@H]1CC[C@H]2[C@@H]3CC=C4C[C@@H](O)CC[C@]4(C)[C@H]3CC[C@]12C` [Example 357, (R)-1-(1,1-dioxidothiazolidin-3-yl)-4-((3S,8S,9S,10R,13R,14S,17R)-3-hydroxy-10,13-dimethyl-2,3,4,7,8,9,10,11,12,13,14,15,16,17-tetradecahydro-1H-cyclopenta[a]phenanthren-17-yl)pentan-1-one]?
Answer: IC50 [2]: < 250 nM; EC50 [4, 5]: > 10000 nM

Question: Which results are given for `C[C@H](CCC(=O)N1CCN(c2ccnc(OCCO)n2)CC1)[C@H]1CC[C@H]2[C@@H]3CC=C4C[C@@H](O)CC[C@]4(C)[C@H]3CC[C@]12C` [Example 564, (4R)-4-[(1R,3aS,3bS,7S,9aR,9bS,11aR)-7-hydroxy-9a,11a-dimethyl-1H,2H,3H,3aH,3bH,4H,6H,7H,8H,9H,9aH,9bH,10H,11H,11aH-cyclopenta[a]phenanthren-1-yl]-1-{4-[2-(2-hydroxyethoxy)pyrimidin-4-yl]piperazin-1-yl}pentan-1-one]?
Answer: IC50 [2]: < 250 nM; EC50 [4, 5]: > 10000 nM

Question: With `C[C@H](CCC(=O)N1CCN(C(=O)c2cnn(C)c2)[C@@H](C)C1)[C@H]1CC[C@H]2[C@@H]3CC=C4C[C@@H](O)CC[C@]4(C)[C@H]3CC[C@]12C` [Example 565, (4R)-4-[(1R,3aS,3bS,7S,9aR,9bS,11aR)-7-hydroxy-9a,11a-dimethyl-1H,2H,3H,3aH,3bH,4H,6H,7H,8H,9H,9aH,9bH,10H,11H,11aH-cyclopenta[a]phenanthren-1-yl]-1-[(3S)-3-methyl-4-(1-methyl-1H-pyrazole-4-carbonyl)piperazin-1-yl]pentan-1-one] as the molecule, how does the IC50 [2] read?
Answer: < 250 nM

Question: And the EC50 [4, 5]?
Answer: > 10000 nM

Question: “(R)-1-(4-(5,6-dimethoxypyrimidin-4-yl)piperazin-1-yl)-4-((3S,8S,9S,10R,13R,14S,17R)-3-hydroxy-10,13-dimethyl-2,3,4,7,8,9,10,11,12,13,14,15,16,17-tetradecahydro-1H-cyclopenta[a]phenanthren-17-yl)pentan-1-one [Example 620]” was tested. Which IC50 [2] did it give?
Answer: < 250 nM

Question: And the EC50 [4, 5]?
Answer: > 10000 nM

Question: `C[C@H](CCc1ncccc1OCCO)[C@H]1CC[C@H]2[C@@H]3CC=C4C[C@@H](O)CC[C@]4(C)[C@H]3CC[C@]12C` [Example 246] was tested. Which IC50 [2] did it give?
Answer: < 250 nM

Question: What about the EC50 [4, 5] of the same molecule?
Answer: 250 to 1000 nM
